From paper PMC9394284, “Discovery of Novel Dual Adenosine A2A and A1 Receptor Antagonists with 1H-Pyrazolo[3,4-d]pyrimidin-6-amine Core Scaffold as Anti-Parkinson’s Disease Agents” (Pharmaceuticals, 2022)

Tests used:
hA2A receptors = target: T1, hA2A receptors (Homo sapiens, UniProt P29274); experiment: radioligand binding to human A2A receptors, HEK-293 membranes; settings: average of duplicate experiments
T1 construct: purchased PerkinElmer RBHA2AM
Method: The binding affinities of synthesized compounds to human A2A receptors (hA2AR) were measured by assessing competitive binding of ligands to radioligand […] using membrane preparations of human recombinant HEK-293 cells expressing human A2A receptors.
The radioligand-binding assays for adenosine receptors were performed at Eurofins Discovery Services (Panlabs, Taiwan). Briefly, stock solutions of the compounds were prepared in DMSO and further diluted with the incubation buffer to the desired concentration. Final DMSO concentrations in the assay were 1.0%. […] Nonspecific binding was estimated in the presence of 100 μM R(-)-PIA. Membranes were filtered and washed 3 times and the filters were counted to determine specifically bound [^3H]DPCPX. Chemical compounds were screened at 10 μM. […] Nonspecific binding was estimated in the presence of 50.0 μM NECA. […] Nonspecific binding was estimated in the presence of 100 μM NECA. Membranes were filtered and washed 3 times and the filters were counted to determine [^3H]MRS1754 specifically bound. […] Nonspecific binding was estimated in the presence of 1.0 μM IB-MECA.
IC50 values were determined by a nonlinear, least-squares regression analysis using MathIQ^TM (ID Business Solutions Ltd., Guildford, UK). […] The Hill coefficient (nH), which defines the slope of the competitive binding curve, was calculated using MathIQ^TM.

hA1 receptor = target: T2, hA1 receptor (Homo sapiens, UniProt P30542); experiment: radioligand binding to human A1 receptors, CHO-K1 membranes, [3H]DPCPX; settings: average of duplicate experiments
T2 sequence (P30542 1-326): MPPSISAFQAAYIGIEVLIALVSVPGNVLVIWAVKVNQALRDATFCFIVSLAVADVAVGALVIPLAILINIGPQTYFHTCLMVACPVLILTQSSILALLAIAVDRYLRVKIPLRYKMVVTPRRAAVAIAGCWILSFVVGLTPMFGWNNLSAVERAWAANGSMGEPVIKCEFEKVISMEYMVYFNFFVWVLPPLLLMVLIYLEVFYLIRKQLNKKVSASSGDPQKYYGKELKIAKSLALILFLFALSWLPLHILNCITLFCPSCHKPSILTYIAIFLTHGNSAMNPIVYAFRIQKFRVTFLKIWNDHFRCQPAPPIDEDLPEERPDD
Method: The radioligand-binding assays for adenosine receptors were performed at Eurofins Discovery Services (Panlabs, Taiwan). Briefly, stock solutions of the compounds were prepared in DMSO and further diluted with the incubation buffer to the desired concentration. Final DMSO concentrations in the assay were 1.0%. For adenosine A1 screening, a 10 μg aliquots of membrane preparations from human recombinant CHO-K1 cells stably expressing A1 receptors (CHO-K1-hA1AR clone3, EPDST, R200510) were incubated with 1 nM [^3H]DPCPX in incubation buffer (20 mM HEPES, pH 7.4, 10 mM MgCl2, 100 mM NaCl 1.40 nM) for 90 min at 25 °C. Nonspecific binding was estimated in the presence of 100 μM R(-)-PIA. Membranes were filtered and washed 3 times and the filters were counted to determine specifically bound [^3H]DPCPX. Chemical compounds were screened at 10 μM. For A2A screening, membrane preparations from human recombinant HEK-293 cells stably expressing A2A receptors (PerkinElmer, RBHA2AM) were incubated with 0.05 μM [^3H]CGS-21680 in incubation buffer (50 mM Tris-HCl, pH 7.4, 10 mM MgCl2, 1 mM EDTA, 2 U/mL Adenosine Deaminase) for 90 min at 25 °C. Nonspecific binding was estimated in the presence of 50.0 μM NECA. Membranes were filtered and washed 3 times and the filters were counted to determine [^3H]CGS-21680 specifically bound. For A2B screening, membrane preparations from human recombinant HEK-293 cells stably expressing A2B receptors (PerkinElmer, ES-013-M) were incubated with 1.6 nM [^3H]MRS1754 in incubation buffer (50 mM Tris-HCl, pH 6.5, 5 mM MgCl2, 1 mM EDTA, 0.01 % Bacitracin) for 90 min at 25 °C. Nonspecific binding was estimated in the presence of 100 μM NECA. Membranes were filtered and washed 3 times and the filters were counted to determine [^3H]MRS1754 specifically bound. For A3 screening, membrane preparations from human recombinant CHO-K1 cells stably expressing A3 receptors (PerkinElmer, ES-012-M) were incubated with 0.5 nM [^125I]AB-MECA in incubation buffer (25 mM HEPES, pH 7.4, 5 mM MgCl2, 1 mM CaCl2, 0.1 % BSA) for 60 min at 25 °C. Nonspecific binding was estimated in the presence of 1.0 μM IB-MECA.
IC50 values were determined by a nonlinear, least-squares regression analysis using MathIQ^TM (ID Business Solutions Ltd., Guildford, UK). Where inhibition constants (Ki) were presented, the Ki values were calculated using Cheng and Prusoff equation [18] using the observed IC50 of the compound, the concentration of radioligand employed in the assay, and the historical values for the KD of the ligand (obtained experimentally at Eurofins Panlabs, Inc.). The Hill coefficient (nH), which defines the slope of the competitive binding curve, was calculated using MathIQ^TM.

solubility (qualitative) = type: physicochemical; settings: CF3 next to aniline, difficulties in forming salt

T1 sequence (P29274 whole entry): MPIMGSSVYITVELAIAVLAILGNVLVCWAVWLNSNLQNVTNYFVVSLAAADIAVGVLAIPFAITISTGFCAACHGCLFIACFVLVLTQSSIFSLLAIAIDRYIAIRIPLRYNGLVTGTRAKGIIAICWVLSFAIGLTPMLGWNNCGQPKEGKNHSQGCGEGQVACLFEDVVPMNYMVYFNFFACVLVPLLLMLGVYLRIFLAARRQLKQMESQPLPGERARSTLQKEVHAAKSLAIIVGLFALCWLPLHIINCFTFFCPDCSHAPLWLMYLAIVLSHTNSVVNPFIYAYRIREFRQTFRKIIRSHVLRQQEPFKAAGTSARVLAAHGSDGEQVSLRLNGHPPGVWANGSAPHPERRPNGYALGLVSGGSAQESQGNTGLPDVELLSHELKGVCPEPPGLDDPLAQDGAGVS

Row | SMILES | Ki (hA2A receptors) [nM] | Ki (hA1 receptor) [nM] | solubility (in words) (solubility (qualitative))
1 | N#Cc1cccc(-c2nc(N)nc3c2cnn3Cc2ccc(N)cc2F)c1 [11i, 3-(6-Amino-1-(4-amino-2-fluorobenzyl)-1H-pyrazolo[3,4-d]pyrimidin-4-yl)benzonitrile] | 12.1 | 160 | 
2 | N#Cc1cc(-c2nc(N)nc3c2cnn3Cc2ccc(N)cc2)ccn1 [11d, 4-(6-Amino-1-(4-aminobenzyl)-1H-pyrazolo[3,4-d]pyrimidin-4-yl)picolinonitrile] | 4720 | 8530 | 
3 | N#Cc1cccc(-c2nc(N)nc3c2cnn3Cc2ccc(N)cc2F)c1F [11j, 3-(6-Amino-1-(4-amino-2-fluorobenzyl)-1H-pyrazolo[3,4-d]pyrimidin-4-yl)-2-fluorobenzonitrile] | 16.4 | 63 | 
4 | N#Cc1ccnc(-c2nc(N)nc3c2cnn3Cc2ccc(N)cc2F)c1 [11e, 2-(6-Amino-1-(4-amino-2-fluorobenzyl)-1H-pyrazolo[3,4-d]pyrimidin-4-yl)isonicotinonitrile] | 120 | 710 | 
5 | Cc1cc(Cn2ncc3c(-c4cccc(C#N)c4)nc(N)nc32)ccc1N [compound 8, 3-(6-Amino-1-(4-amino-3-methylbenzyl)-1H-pyrazolo[3,4-d]pyrimidin-4-yl)benzonitrile] | 11.1 | 110 | 
6 | N#Cc1cncc(-c2nc(N)nc3c2cnn3Cc2ccc(N)cc2)c1 [11c, 5-(6-Amino-1-(4-aminobenzyl)-1H-pyrazolo[3,4-d]pyrimidin-4-yl)nicotinonitrile] | 4790 | 32000 | 
7 | N#Cc1cccc(-c2nc(N)nc3c2cnn3Cc2c(F)cc(N)cc2F)n1 [11q, 6-[6-Amino-1-[(4-amino-2,6-difluoro-phenyl)methyl]pyrazolo[3,4-d]pyrimidin-4-yl]pyridine-2-carbonitrile] | 6.84 | 150 | 
8 | N#Cc1cccc(-c2nc(N)nc3c2cnn3Cc2c(F)cc(N)cc2F)c1 [11t, 3-[6-Amino-1-[(4-amino-2,6-difluoro-phenyl)methyl]pyrazolo[3,4-d]pyrimidin-4-yl]benzonitrile] | 7.42 | 50 | 
9 | N#Cc1cccc(-c2nc(N)nc3c2cnn3Cc2c(F)cc(N)cc2F)c1F [11u, 3-(6-Amino-1-(4-amino-2,6-difluorobenzyl)-1H-pyrazolo[3,4-d]pyrimidin-4-yl)-2-fluorobenzonitrile] | 6.45 | 30 | 
10 | N#Cc1cncc(-c2nc(N)nc3c2cnn3Cc2ccc(N)cc2F)c1 [11g, 5-(6-Amino-1-(4-amino-2-fluorobenzyl)-1H-pyrazolo[3,4-d]pyrimidin-4-yl)nicotinonitrile] | 2640 | 32800 | 
11 | N#Cc1cccc(-c2nc(N)nc3c2cnn3Cc2ccc(N)cc2)c1 [4a, 3-(6-Amino-1-(4-aminobenzyl)-1H-pyrazolo[3,4-d]pyrimidin-4-yl)benzonitrile] | 16.4 |  | 
12 | N#Cc1ccnc(-c2nc(N)nc3c2cnn3Cc2ccc(N)c(C(F)(F)F)c2)c1 [11v, 2-[6-Amino-1-[[4-amino-3-(trifluoromethyl)phenyl]methyl]pyrazolo[3,4-d]pyrimidin-4-yl]pyridine-4-carbonitrile] | 10.2 | 250 | greatly reduced solubility
13 | N#Cc1cccc(-c2nc(N)nc3c2cnn3Cc2ccc(N)cc2)n1 [11b, 6-(6-Amino-1-(4-aminobenzyl)-1H-pyrazolo[3,4-d]pyrimidin-4-yl)picolinonitrile] | 31 | 650 | 
14 | N#Cc1cccc(-c2nc(N)nc3c2cnn3Cc2ccc(N)c(C(F)(F)F)c2)c1 [11w, 3-(6-Amino-1-(4-amino-3-(trifluoromethyl)benzyl)-1H-pyrazolo[3,4-d]pyrimidin-4-yl)benzonitrile] | 1.94 | 49 | greatly reduced solubility
15 | N#Cc1ccnc(-c2nc(N)nc3c2cnn3Cc2ccc(N)cc2)c1 [11a, 2-(6-Amino-1-(4-aminobenzyl)-1H-pyrazolo[3,4-d]pyrimidin-4-yl)isonicotinonitrile] | 310 | 2470 | 
16 | Cc1cc(Cn2ncc3c(-c4ccnc(C#N)c4)nc(N)nc32)ccc1N [11n, 4-(6-Amino-1-(4-amino-3-methylbenzyl)-1H-pyrazolo[3,4-d]pyrimidin-4-yl)picolinonitrile] | 1150 | 21300 | 
17 | Cc1cc(Cn2ncc3c(-c4cccc(C#N)n4)nc(N)nc32)ccc1N [11l, 6-(6-Amino-1-(4-amino-3-methylbenzyl)-1H-pyrazolo[3,4-d]pyrimidin-4-yl)picolinonitrile] | 6.39 | 180 | 
18 | Cc1cc(Cn2ncc3c(-c4cncc(C#N)c4)nc(N)nc32)ccc1N [11m, 5-(6-Amino-1-(4-amino-3-methylbenzyl)-1H-pyrazolo[3,4-d]pyrimidin-4-yl)nicotinonitrile] | 2480 | 21200 | 
19 | N#Cc1ccnc(-c2nc(N)nc3c2cnn3Cc2c(F)cc(N)cc2F)c1 [11p, 2-[6-Amino-1-[(4-amino-2,6-difluoro-phenyl)methyl]pyrazolo[3,4-d]pyrimidin-4-yl]pyridine-4-carbonitrile] | 47 | 380 | 
20 | Cc1cc(Cn2ncc3c(-c4cc(C#N)ccn4)nc(N)nc32)ccc1N [11k, 2-(6-Amino-1-(4-amino-3-methylbenzyl)-1H-pyrazolo[3,4-d]pyrimidin-4-yl)isonicotinonitrile] | 65 | 510 | 
21 | N#Cc1cc(-c2nc(N)nc3c2cnn3Cc2c(F)cc(N)cc2F)ccn1 [11s, 4-[6-Amino-1-[(4-amino-2,6-difluoro-phenyl)methyl]pyrazolo[3,4-d]pyrimidin-4-yl]pyridine-2-carbonitrile] | 4920 |  | 
22 | N#Cc1cc(-c2nc(N)nc3c2cnn3Cc2ccc(N)cc2F)ccn1 [11h, 4-(6-Amino-1-(4-amino-2-fluorobenzyl)-1H-pyrazolo[3,4-d]pyrimidin-4-yl)picolinonitrile] | 3190 | 28000 | 
23 | N#Cc1cccc(-c2nc(N)nc3c2cnn3Cc2ccc(N)cc2F)n1 [11f, 6-[6-Amino-1-[(4-amino-2-fluoro-phenyl)methyl]pyrazolo[3,4-d]pyrimidin-4-yl]pyridine-2-carbonitrile] | 10.6 | 160 | 
24 | N#Cc1cncc(-c2nc(N)nc3c2cnn3Cc2c(F)cc(N)cc2F)c1 [11r, 5-[6-Amino-1-[(4-amino-2,6-difluoro-phenyl)methyl]pyrazolo[3,4-d]pyrimidin-4-yl]pyridine-3-carbonitrile] | 1220 | 10000 | 
25 | N#Cc1cccc(-c2nc(N)nc3c2cnn3Cc2ccc(N)cc2)c1F [4b, 3-(6-Amino-1-(4-aminobenzyl)-1H-pyrazolo[3,4-d]pyrimidin-4-yl)-2-fluorobenzonitrile] | 19.4 |  | 
26 | CCn1c(=O)c2c(nc(/C=C/c3ccc(OC)c(OC)c3)n2C)n(CC)c1=O [Istradefylline, reference compound] |  | 610 | 
